Measured values: PubChem BioAssay AID1259407 (Chemical Carcinogenesis Research Information System (CCRIS), 2018)
Activity calls are given as the source filed them. How the calls were made is not given here.

Test system: CCRIS mutagenicity, Ames/micronucleus/aberration tests
Test: CCRIS mutagenicity studies
[1] = Test System: AMES SALMONELLA TYPHIMURIUM, Strain/Indicator: TA98, Metabolic Activation: NONE, Method: STANDARD PLATE
[2] = Test System: AMES SALMONELLA TYPHIMURIUM, Strain/Indicator: TA98, Metabolic Activation: RAT, LIVER, S-9, AROCLOR 1254, Method: STANDARD PLATE

BrCCBr
mutagenic call (End Point: IN VITRO CHROMOSOMAL ABERRATIONS, Test System: CHL CELLS, Metabolic Activation: RAT, LIVER, S-9, SODIUM PHENOBARBITAL AND 5,6-BENZOFLAVONE): active; positive (structural changes) | mutagenic call (End Point: IN VITRO CHROMOSOMAL ABERRATIONS, Test System: CHO CELLS, Metabolic Activation: NONE): active; positive | mutagenic call (End Point: IN VITRO CHROMOSOMAL ABERRATIONS, Test System: CHO CELLS, Metabolic Activation: RAT, LIVER, S-9, AROCLOR 1254): active; positive | mutagenic call (Test System: AMES SALMONELLA TYPHIMURIUM, Strain/Indicator: TA97, Metabolic Activation: NONE, Method: STANDARD PLATE): active; positive | mutagenic call (Test System: AMES SALMONELLA TYPHIMURIUM, Strain/Indicator: TA97, Metabolic Activation: RAT, LIVER, S-9, AROCLOR 1254, Method: STANDARD PLATE): active; positive | mutagenic call [1]: inactive; negative | mutagenic call [2]: active; positive | mutagenic call (Test System: AMES SALMONELLA TYPHIMURIUM, Strain/Indicator: TA100/NG-57, Metabolic Activation: CELL PRETREATMENT WITH GLUTATHIONE, Method: PREINCUBATION): active; positive | mutagenic call (Test System: AMES SALMONELLA TYPHIMURIUM, Strain/Indicator: TA100/NG-57, Metabolic Activation: NONE, Method: PREINCUBATION): inactive; negative | mutagenic call (Test System: AMES SALMONELLA TYPHIMURIUM, Strain/Indicator: TA100, Metabolic Activation: CELL PRETREATMENT WITH GLUTATHIONE, Method: PREINCUBATION): active; positive | mutagenic call (Test System: AMES SALMONELLA TYPHIMURIUM, Strain/Indicator: TA100, Metabolic Activation: NONE): active; positive | mutagenic call (Test System: AMES SALMONELLA TYPHIMURIUM, Strain/Indicator: TA100, Metabolic Activation: NONE, Method: PREINCUBATION): active; positive | mutagenic call (Test System: AMES SALMONELLA TYPHIMURIUM, Strain/Indicator: TA100, Metabolic Activation: NONE, Method: SUSPENSION/PLATE): active; positive | mutagenic call (Test System: AMES SALMONELLA TYPHIMURIUM, Strain/Indicator: TA100, Metabolic Activation: RAT, KIDNEY, S-9, AROCLOR 1254): active; positive | mutagenic call (Test System: AMES SALMONELLA TYPHIMURIUM, Strain/Indicator: TA100, Metabolic Activation: RAT, LIVER, HEPATOCYTES, Method: SUSPENSION/PLATE): active; positive | mutagenic call (Test System: AMES SALMONELLA TYPHIMURIUM, Strain/Indicator: TA100, Metabolic Activation: RAT, LIVER, S-9, AROCLOR 1254): active; positive | mutagenic call (Test System: AMES SALMONELLA TYPHIMURIUM, Strain/Indicator: TA100, Metabolic Activation: RAT, LIVER, S-9, AROCLOR 1254, Method: STANDARD PLATE): active; positive | mutagenic call (Test System: AMES SALMONELLA TYPHIMURIUM, Strain/Indicator: TA100, Metabolic Activation: RAT, LIVER, S-9, AROCLOR 1254 AND RAT, KIDNEY, S-9, AROCLOR 1254): active; positive | mutagenic call (Test System: AMES SALMONELLA TYPHIMURIUM, Strain/Indicator: TA100, Metabolic Activation: S-9 MIX, Method: STANDARD PLATE): active; positive | mutagenic call (Test System: AMES SALMONELLA TYPHIMURIUM, Strain/Indicator: TA102, Metabolic Activation: NONE, Method: STANDARD PLATE): inactive; negative | mutagenic call (Test System: AMES SALMONELLA TYPHIMURIUM, Strain/Indicator: TA104, Metabolic Activation: NONE, Method: STANDARD PLATE): inactive; negative | mutagenic call (Test System: AMES SALMONELLA TYPHIMURIUM, Strain/Indicator: TA104, Metabolic Activation: RAT, LIVER, S-9, AROCLOR 1254, Method: STANDARD PLATE): inactive; negative | mutagenic call (Test System: AMES SALMONELLA TYPHIMURIUM, Strain/Indicator: TA1530, Metabolic Activation: NONE, Method: SPOT): active; positive | mutagenic call (Test System: AMES SALMONELLA TYPHIMURIUM, Strain/Indicator: TA1535/NG-19, Metabolic Activation: CELL PRETREATMENT WITH GLUTATHIONE, Method: PREINCUBATION): active; positive | mutagenic call (Test System: AMES SALMONELLA TYPHIMURIUM, Strain/Indicator: TA1535/NG-19, Metabolic Activation: NONE, Method: PREINCUBATION): active; positive | mutagenic call (Test System: AMES SALMONELLA TYPHIMURIUM, Strain/Indicator: TA1535, Metabolic Activation: CELL PRETREATMENT WITH GLUTATHIONE, Method: PREINCUBATION): active; positive | mutagenic call (Test System: AMES SALMONELLA TYPHIMURIUM, Strain/Indicator: TA1535, Metabolic Activation: NONE, Method: PREINCUBATION): active; positive | mutagenic call (Test System: AMES SALMONELLA TYPHIMURIUM, Strain/Indicator: TA1535, Metabolic Activation: NONE, Method: STANDARD PLATE): active; positive | mutagenic call (Test System: AMES SALMONELLA TYPHIMURIUM, Strain/Indicator: TA1535, Metabolic Activation: RAT, KIDNEY, S-9, AROCLOR 1254): active; positive | mutagenic call (Test System: AMES SALMONELLA TYPHIMURIUM, Strain/Indicator: TA1535, Metabolic Activation: RAT, LIVER, S-9, AROCLOR 1254, Method: PREINCUBATION): active; positive | mutagenic call (Test System: AMES SALMONELLA TYPHIMURIUM, Strain/Indicator: TA1535, Metabolic Activation: RAT, LIVER, S-9, AROCLOR 1254, Method: STANDARD PLATE): active; positive | mutagenic call (Test System: AMES SALMONELLA TYPHIMURIUM, Strain/Indicator: TA1535, Metabolic Activation: RAT, LIVER, S-9, AROCLOR 1254 AND RAT, KIDNEY, S-9, AROCLOR 1254): active; positive | mutagenic call (Test System: AMES SALMONELLA TYPHIMURIUM, Strain/Indicator: TA1535, Metabolic Activation: RAT, LIVER, S-9, PHENOBARBITAL, Method: STANDARD PLATE): active; positive | mutagenic call (Test System: AMES SALMONELLA TYPHIMURIUM, Strain/Indicator: TA2638, Metabolic Activation: NONE, Method: STANDARD PLATE): inactive; negative | mutagenic call (Test System: AMES SALMONELLA TYPHIMURIUM, Strain/Indicator: YG7100, Metabolic Activation: NONE, Method: PREINCUBATION): active; positive | mutagenic call (Test System: AMES SALMONELLA TYPHIMURIUM, Strain/Indicator: YG7104, Metabolic Activation: NONE, Method: PREINCUBATION): active; positive | mutagenic call (Test System: AMES SALMONELLA TYPHIMURIUM, Strain/Indicator: YG7108, Metabolic Activation: NONE, Method: PREINCUBATION): active; positive | mutagenic call (Test System: AMES SALMONELLA TYPHIMURIUM, Strain/Indicator: YG7112, Metabolic Activation: NONE, Method: PREINCUBATION): active; positive | mutagenic call (Test System: AMES SALMONELLA TYPHIMURIUM, Strain/Indicator: YG7113, Metabolic Activation: NONE, Method: PREINCUBATION): active; positive | mutagenic call (Test System: AMES SALMONELLA TYPHIMURIUM, Strain/Indicator: YG7119, Metabolic Activation: NONE, Method: PREINCUBATION): active; positive | mutagenic call (Test System: CHINESE HAMSTER OVARY, Strain/Indicator: CHO-K1 (HPRT)/6-THIOGUANINE, Metabolic Activation: NONE, Method: SUSPENSION/PLATE): active; positive | mutagenic call (Test System: CHINESE HAMSTER OVARY, Strain/Indicator: CHO-K1-BH4 (HGPRT)/6-THIOGUANINE, Metabolic Activation: NONE): inactive; negative | mutagenic call (Test System: E. COLI, Strain/Indicator: K12(AB1157), Metabolic Activation: NONE, Method: SUSPENSION/PLATE): inactive; negative | mutagenic call (Test System: E. COLI, Strain/Indicator: K12(AB1157), Metabolic Activation: RAT, LIVER, S-9, PHENOBARBITAL AND BETA-NAPHTHOFLAVONE, Method: SUSPENSION/PLATE): inactive; negative | mutagenic call (Test System: E. COLI, Strain/Indicator: K12(AB1886) UVRA, Metabolic Activation: NONE, Method: SUSPENSION/PLATE): active; positive | mutagenic call (Test System: E. COLI, Strain/Indicator: K12(AB1886) UVRA, Metabolic Activation: RAT, LIVER, S-9, PHENOBARBITAL AND BETA-NAPHTHOFLAVONE, Method: SUSPENSION/PLATE): active; positive | mutagenic call (Test System: E. COLI, Strain/Indicator: K12(AB2480) RECA/UVRA, Metabolic Activation: NONE, Method: SUSPENSION/PLATE): inactive; negative | mutagenic call (Test System: E. COLI, Strain/Indicator: K12(AB2480) RECA/UVRA, Metabolic Activation: RAT, LIVER, S-9, PHENOBARBITAL AND BETA-NAPHTHOFLAVONE, Method: SUSPENSION/PLATE): inactive; negative | mutagenic call (Test System: E. COLI, Strain/Indicator: WP2 UVRA (PKM101), Metabolic Activation: NONE, Method: STANDARD PLATE): active; positive | mutagenic call (Test System: MOUSE LYMPHOMA, Strain/Indicator: L5178Y (TK+/TK-), Metabolic Activation: NONE, Method: SUSPENSION/PLATE): active; positive | mutagenic call (Test System: MOUSE LYMPHOMA, Strain/Indicator: L5178Y (TK+/TK-), Metabolic Activation: RAT, LIVER, S-9, AROCLOR 1254, Method: SUSPENSION/PLATE): active; positive

COc1cccc2c1C(=O)c1c(O)c3c(c(O)c1C2=O)C[C@@](O)(C(C)=O)C[C@@H]3O
mutagenic call [1]: active; positive | mutagenic call [2]: active; positive | mutagenic call (Test System: AMES SALMONELLA TYPHIMURIUM, Strain/Indicator: TA100, Metabolic Activation: NONE, Method: STANDARD PLATE): inactive; negative | mutagenic call (Test System: AMES SALMONELLA TYPHIMURIUM, Strain/Indicator: TA1538, Metabolic Activation: NONE, Method: STANDARD PLATE): inactive; negative
